A short description of data set [1]: Thermal stability of compound in water assessed as antibacterial activity against Mycobacterium smegmatis DSM 43080 by measuring zone of inhibition incubated up to 8 hrs at 95 degreeC by agar diffusion assay. In kind it is physicochemical. The settings on record: buffer. A general note: In agar diffusion tests the substance spreads into inoculated agar from a disc or well.

Data set [2] in a line: Stability of the compound assessed as carboxypeptidase Y mediated compound digestion by measuring Mycobacterium smegmatis DSM 43080 zone of inhibition incubated for 4 hrs by agar diffusion assay. Type of data set: ADME.
Data set [3] is described as follows: Thermal stability of compound in water incubated at 95 degreeC for 4 hrs by HPLC analysis. The settings on record: buffer. In kind it is physicochemical.
A short description of data set [4]: Stability of the compound assessed as carboxypeptidase Y mediated compound digestion pretreated at 95 degreeC for 4 hrs followed by protease addition incubated for 4 hrs by HPLC analysis. Type of data set: ADME.
In data set [5] the test system is Mycolicibacterium phlei. The data set can be described thus: Antibacterial activity against Mycobacterium phlei DSM 43239 assessed as reduction in bacterial growth measured after 3 days by broth microdilution method. Type of data set: functional. The settings on record: DSM 43239, 72 h, time 3 day. On the technique in general: Broth dilution looks for growth in wells or tubes with falling amounts of substance.

In data set [6] the test system is Mycolicibacterium phlei. The data set can be described thus: Bactericidal activity against Mycobacterium phlei DSM 43239 assessed as reduction in colony count and measured after 3 days by agar diffusion assay. Type of data set: functional. The settings on record: DSM 43239, 72 h, time 3 day.
The test system of data set [7] is Mycolicibacterium smegmatis. The data set can be described thus: Antibacterial activity against Mycobacterium smegmatis DSM 43080 assessed as reduction in bacterial growth measured after 3 days by broth microdilution method. In kind it is functional. The settings on record: DSM 43080, 72 h, time 3 day.
For data set [8], the system named is Mycolicibacterium smegmatis. Put plainly: Bactericidal activity against Mycobacterium smegmatis DSM 43080 assessed as reduction in colony count and measured after 3 days by agar diffusion assay. In kind it is functional. The settings on record: DSM 43080, 72 h, time 3 day.
Data set [9] relates to Bacillus cereus. The data set can be described thus: Antibacterial activity against Bacillus cereus DSM 31 assessed as reduction in bacterial growth measured after 3 days by broth microdilution method. Type of data set: functional. The settings on record: DSM 31, 72 h, time 3 day.
Data set [10] concerns Bacillus cereus. The data set can be described thus: Bactericidal activity against Bacillus cereus DSM 31 assessed as reduction in colony count and measured after 3 days by agar diffusion assay. In kind it is functional. The settings on record: DSM 31, 72 h, time 3 day.
For data set [11], the system named is Enterococcus faecium. Put plainly: Antibacterial activity against Enterococcus faecium DSM 20477 assessed as reduction in bacterial growth measured after 3 days by broth microdilution method. In kind it is functional. The settings on record: DSM 20477, 72 h, time 3 day.
Data set [12] concerns Enterococcus faecium. The data set can be described thus: Bactericidal activity against Enterococcus faecium DSM 20477 assessed as reduction in colony count and measured after 3 days by agar diffusion assay. The settings on record: DSM 20477, 72 h, time 3 day. Type of data set: functional.
For data set [13], the system named is Staphylococcus aureus. The data set can be described thus: Antibacterial activity against Staphylococcus aureus DSM 20231 assessed as reduction in bacterial growth measured after 3 days by broth microdilution method. Type of data set: functional. The settings on record: DSM 20231, 72 h, time 3 day.
Data set [14] concerns Staphylococcus aureus. The data set can be described thus: Bactericidal activity against Staphylococcus aureus DSM 20231 assessed as reduction in colony count and measured after 3 days by agar diffusion assay. In kind it is functional. The settings on record: DSM 20231, 72 h, time 3 day.
Data set [15] has as its system Klebsiella oxytoca. The data set can be described thus: Antibacterial activity against Klebsiella oxytoca DSM 5175 assessed as reduction in bacterial growth measured after 3 days by broth microdilution method. The settings on record: DSM 5175, 72 h, time 3 day. Type of data set: functional.
Data set [16] concerns Klebsiella oxytoca. Put plainly: Bactericidal activity against Klebsiella oxytoca DSM 5175 assessed as reduction in colony count and measured after 3 days by agar diffusion assay. Type of data set: functional. The settings on record: DSM 5175, 72 h, time 3 day.
Data set [17] concerns Acinetobacter baumannii. Put plainly: Antibacterial activity against Acinetobacter baumannii […] assessed as reduction in bacterial growth measured after 3 days by broth microdilution method. In kind it is functional. The settings on record: 72 h, time 3 day.
The subject of data set [18] is Acinetobacter baumannii. Put plainly: Bactericidal activity against Acinetobacter baumannii […] assessed as reduction in colony count and measured after 3 days by agar diffusion assay. Type of data set: functional. The settings on record: 72 h, time 3 day.
The test system of data set [19] is Pseudomonas aeruginosa. Put plainly: Antibacterial activity against Pseudomonas aeruginosa DSM 19880 assessed as reduction in bacterial growth measured after 3 days by broth microdilution method. Type of data set: functional. The settings on record: DSM 19880, 72 h, time 3 day.
The test system of data set [20] is Pseudomonas aeruginosa. The data set can be described thus: Bactericidal activity against Pseudomonas aeruginosa DSM 19880 assessed as reduction in colony count and measured after 3 days by agar diffusion assay. In kind it is functional. The settings on record: DSM 19880, 72 h, time 3 day.
Data set [21] has as its system Enterobacter cloacae. The data set can be described thus: Antibacterial activity against Enterobacter cloacae DSM 30054 assessed as reduction in bacterial growth measured after 3 days by broth microdilution method. The settings on record: DSM 30054, 72 h, time 3 day. Type of data set: functional.
In data set [22] the test system is Enterobacter cloacae. The data set can be described thus: Bactericidal activity against Enterobacter cloacae DSM 30054 assessed as reduction in colony count and measured after 3 days by agar diffusion assay. In kind it is functional. The settings on record: DSM 30054, 72 h, time 3 day.
Data set [23] has as its system Mycolicibacterium smegmatis. Put plainly: Antimycobacterial activity against Mycobacterium smegmatis DSM 43080 assessed as reduction in bacterial growth at late-exponential phase at 10 times of MIC measured up to 48 hrs by time killing assay. The settings on record: TDE = time-dependent effect. Type of data set: functional, organism-based.
Data set [24] relates to Mycolicibacterium smegmatis. The data set can be described thus: Antimycobacterial activity against Mycobacterium smegmatis DSM 43080 assessed as reduction in bacterial growth at mid-exponential phase at 10 times of MIC and measured up to 24 hrs by time killing assay. Type of data set: functional, organism-based. The settings on record: TDE = time-dependent effect.

≈ marks a conversion by molar mass, not a printed value. Where a SMILES comes first, the peptide text is derived from it. Bridges are numbered along the chain shown (N, C = ends). Some results are limits rather than exact numbers.

The MIC is the lowest concentration found to suppress growth. The MBC is the smallest concentration meeting the test's criterion for killing.

For the compound `CC[C@H](C)[C@H](NC(=O)CNC(=O)[C@@H]1CC(=O)N[C@@H](CO)C(=O)N[C@@H](CCCCN)C(=O)N[C@@H](CCCCN)C(=O)N[C@@H](CO)C(=O)N[C@@H](CCCCN)C(=O)N2CCC[C@H]2C(=O)NCC(=O)N1)C(=O)N[C@@H](CCCNC(=N)N)C(=O)NCC(=O)N[C@@H](CCCCN)C(=O)NCC(=O)N[C@H](C(=O)N[C@@H](CCCNC(=N)N)C(=O)NCC(=O)O)C(C)C` (SKKSKPGDGIRGKGVRG-OH; lactam N-8), the Stability entry in data set [1], in data set [2], in data set [3] and in data set [4] was “Stable” each time. Also, the MIC is 0.03 µg/mL (≈ 0.0176 µM) in the data set with Mycolicibacterium phlei [5]; 0.125 µg/mL (≈ 0.0731 µM) in [7]; over 32 µg/mL in the data set on Bacillus cereus [9]; over 32 µg/mL with Enterococcus faecium [11]; over 32 µg/mL with Staphylococcus aureus [13]; over 32 µg/mL in the data set on Klebsiella oxytoca [15]. In addition, the MIC in the data set on Acinetobacter baumannii [17], with Pseudomonas aeruginosa [19] and in the data set on Enterobacter cloacae [21] was over 32 µg/mL each time. Moreover, the MBC in the data set with Mycolicibacterium phlei [6] is over 0.125 µg/mL; in [8], 0.5 µg/mL (≈ 0.293 µM); in the data set with Bacillus cereus [10], over 32 µg/mL; in the data set with Enterococcus faecium [12], over 32 µg/mL; in the data set on Staphylococcus aureus [14], over 32 µg/mL; in the data set on Klebsiella oxytoca [16] it was over 32 µg/mL. Moreover, the MBC with Acinetobacter baumannii [18], with Pseudomonas aeruginosa [20] and in the data set with Enterobacter cloacae [22] was over 32 µg/mL each time. In addition, the Activity entry in data set [23] and in [24] was “Tde” each time.

Turning to `NC[C@H]1O[C@H](O[C@H]2[C@H](O)[C@@H](O[C@H]3O[C@H](CO)[C@@H](O)[C@H](N)[C@H]3O)[C@H](N)C[C@@H]2N)[C@H](O)[C@@H](O)[C@@H]1O` [KANAMYCIN], the MIC is 1 µg/mL (≈ 2.06 µM) with Mycolicibacterium phlei [5]; 0.5 µg/mL (≈ 1.03 µM) in [7]; 8 µg/mL (≈ 16.5 µM) with Bacillus cereus [9]; over 32 µg/mL with Enterococcus faecium [11]; 2 µg/mL (≈ 4.13 µM) in the data set on Staphylococcus aureus [13]; 2 µg/mL (≈ 4.13 µM) in the data set with Klebsiella oxytoca [15]. Further, the values for the MIC in the data set on Acinetobacter baumannii [17], with Pseudomonas aeruginosa [19] and in the data set on Enterobacter cloacae [21] were 2 µg/mL (≈ 4.13 µM), over 32 µg/mL and 2 µg/mL (≈ 4.13 µM), respectively. The MBC with Mycolicibacterium phlei [6] is 1 µg/mL (≈ 2.06 µM); in [8], 0.5 µg/mL (≈ 1.03 µM); with Enterococcus faecium [12] it was over 32 µg/mL; in the data set with Pseudomonas aeruginosa [20], over 32 µg/mL.

For `CO[C@H]1/C=C/O[C@@]2(C)Oc3c(C)c(O)c4c(O)c(c(/C=N/N5CCN(C)CC5)c(O)c4c3C2=O)NC(=O)/C(C)=C\C=C\[C@H](C)[C@H](O)[C@@H](C)[C@@H](O)[C@@H](C)[C@H](OC(C)=O)[C@@H]1C` [RIFAMPIN], the MIC is 0.03 µg/mL (≈ 0.0365 µM) with Mycolicibacterium phlei [5]; 8 µg/mL (≈ 9.72 µM) in [7]; 0.25 µg/mL (≈ 0.304 µM) with Bacillus cereus [9]; 8 µg/mL (≈ 9.72 µM) in the data set on Enterococcus faecium [11]; 0.004 µg/mL (≈ 0.00486 µM) in the data set with Staphylococcus aureus [13]; 4 µg/mL (≈ 4.86 µM) in the data set on Klebsiella oxytoca [15]. In addition, the MIC is 1 µg/mL (≈ 1.22 µM) in the data set on Acinetobacter baumannii [17], over 32 µg/mL in the data set on Pseudomonas aeruginosa [19] and 16 µg/mL (≈ 19.4 µM) in the data set with Enterobacter cloacae [21]. The MBC in the data set on Mycolicibacterium phlei [6] was 0.06 µg/mL (≈ 0.0729 µM); in [8], 8 µg/mL (≈ 9.72 µM); in the data set on Pseudomonas aeruginosa [20] it was over 32 µg/mL.

(Values after ChEMBL document CHEMBL5120907, “Triculamin: An Unusual Lasso Peptide with Potent Antimycobacterial Activity” (J Nat Prod, 2022).)
